Assay results as given in ChEMBL document CHEMBL1201862, “PubChem BioAssay data set” (2004).
Active and inactive are the calls of the source. No stated cut-off is given here; in the data, actives have a measured EC50 and inactives only a lower limit.

Key:
[1] = tested on: Streptococcus sp. 'group A'; assay: growth inhibition of control SK(-) GAS strain, dose response, counter-screen for streptokinase expression inhibitor project, luminescence, kanamycin, BacTiterGlo, confirmation (AID 1900); type: functional, organism-based
[2] = biological target: T1, Streptokinase A (Streptococcus pyogenes serotype M1, UniProt P10520); assay: S. pyogenes streptokinase expression inhibitors, potency, dose response, plasminogen activation absorbance, OD405 (AID 1914); type: functional, Streptococcus pyogenes M1 GAS;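 further: secreted streptokinase activity via plasminogen activation per viability signal from cell pellet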
T1 sequence (P10520 whole entry): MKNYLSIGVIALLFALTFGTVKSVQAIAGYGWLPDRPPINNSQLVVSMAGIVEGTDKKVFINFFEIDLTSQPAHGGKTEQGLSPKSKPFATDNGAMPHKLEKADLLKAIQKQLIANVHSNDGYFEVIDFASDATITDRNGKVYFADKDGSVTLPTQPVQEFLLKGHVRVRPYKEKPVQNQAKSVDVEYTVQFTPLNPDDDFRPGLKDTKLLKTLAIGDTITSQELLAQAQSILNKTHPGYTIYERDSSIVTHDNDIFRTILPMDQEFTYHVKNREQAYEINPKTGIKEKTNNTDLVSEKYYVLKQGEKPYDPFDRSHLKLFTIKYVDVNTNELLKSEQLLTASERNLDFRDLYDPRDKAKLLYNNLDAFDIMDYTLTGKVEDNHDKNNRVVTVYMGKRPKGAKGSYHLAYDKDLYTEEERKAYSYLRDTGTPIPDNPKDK

[3] = tested on: Streptococcus; assay: Group A Streptococcus viability loss, dose response, counter-screen for streptokinase expression inhibitor project, luminescence, BacTiterGlo (AID 1915); type: functional, organism-based;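 further: potency for reduction of bacterial viability or growth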
[4] = inhibitors of intracellular T. cruzi replication, confirmation, NIH3T3 host cells, beta-gal luminescence (AID 2044); type: functional, cell-based;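 further: intracellular parasites grown in NIH/3T3 mouse fibroblasts as host cells; luminescent beta-galactosidase reporter signal from transgenic T. cruzi replicating inside host cells; inhibitors lower the luminescence signal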
[5] = cytotoxicity toward NIH3T3 fibroblasts, dose response, counter-screen, cell-based, ATP luminescence, mouse fibroblasts (AID 2010); type: functional;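 further: cells exposed to compound for about 90 hours before reading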

Row | Structure (SMILES) | EC50 [1] | EC50 [2] | EC50 [3] | EC50 [4] | EC50 [5]
1 | O=C(OCc1ccc(COC(=O)c2ccc(O)cc2)cc1)c1ccc(O)cc1 | 5.67 µM (active) | > 150 µM (not active) | 8.51 µM (active) |  | 
2 | Cc1ccc(CCNC(=O)CN=C(S)N(Cc2ccccc2)Cc2cccnc2)cc1 |  |  |  | 1.28 µM (active) | > 60 µM (not active)
3 | Cc1ccc2nc3c(cc(S(=O)(=O)c4ccccc4)c(=N)n3Cc3ccco3)c(=O)n2c1 |  |  |  | 3 µM (active) | > 60 µM (not active)
4 | CCC(C)n1c(C)nc2c(c1=O)c1nc3ccccc3nc1n2CCC1=CCCCC1 (centres undefined) |  |  |  | 3.7 µM (active) | > 60 µM (not active)
5 | CC(C)(CNC(=O)c1ccccc1)CNC1=NS(=O)(=O)c2ccccc21 | > 150 µM (not active) | > 150 µM (not active) | > 150 µM (not active) |  | 
6 | COc1ccc(C(=O)C2CCCN(Cc3sc(N4CCCC4)nc3Cl)C2)c(OC)c1 (centres undefined) |  |  |  | 0.927 µM (active) | > 60 µM (not active)
7 | CCCOC(=O)c1ccc(Oc2c(-c3ccc(OCC)cc3O)n[nH]c2C)cc1 |  | > 150 µM (not active) |  |  | 
8 | Cc1ccc(OCCCCN2CCCCC2)c(Br)c1 |  |  |  | 2.16 µM (active) | > 60 µM (not active)
9 | CCc1c(-c2ccccc2)nc2sc3c(c2c1N)CCCC3 |  |  |  | 2.01 µM (active) | > 60 µM (not active)
10 | CCC(C)Oc1cc(-c2ccnc(Nc3cccc(Cl)c3)n2)ccn1 (centres undefined) |  |  |  | 1.7 µM (active) | 7.53 µM (active)
11 | CC(C)CCNC(=O)C1CCC(CNS(=O)(=O)c2cccc3nsnc23)CC1 (centres undefined) |  |  |  | > 30 µM (not active) | > 30 µM (not active)
12 | Cc1ccc(C(C)C)c(OCC(=O)NC2CCN(C)CC2)c1 |  |  |  | 1.21 µM (active) | > 60 µM (not active)
13 | O=C(Nc1cccc(S(=O)(=O)c2cccc(NC(=O)c3ccco3)c2)c1)c1ccco1 |  |  |  | 0.869 µM (active) | > 60 µM (not active)
14 | CN(Cc1ccccc1)Cc1c[nH]c2ccccc12 |  |  |  | 0.972 µM (active) | > 60 µM (not active)
15 | Cc1cc2c(c(=O)n1Cc1ccc3c(c1)OCO3)C(c1cccnc1)C(C#N)=C(N)O2 (centres undefined) |  |  |  | 1.94 µM (active) | > 60 µM (not active)
16 | c1ccc(CCn2nnnc2C(c2cccnc2)N2CCN(c3ccccc3)CC2)cc1 (centres undefined) |  |  |  | 0.263 µM (active) | 4.77 µM (active)
17 | N#C/C(=C(/O)COc1ccccc1)c1nc2ccccc2s1 | 26.7 µM (active) | 7.55 µM (active) | > 150 µM (not active) |  | 
18 | COc1ccc2nc(N=C(N)N=C(S)Nc3c(C)cccc3C)nc(C)c2c1 | 21.7 µM (active) |  | > 150 µM (not active) |  | 
19 | COc1ccc2nc(N=C(N)NC(=S)Nc3c(C)cccc3C)nc(C)c2c1 |  | 42 µM (inconclusive) |  |  | 
20 | Cc1ccc(NC(=O)N(Cc2cccnc2)Cc2ccco2)cc1C |  |  |  | 1.39 µM (active) | > 60 µM (not active)
21 | c1cnc2ccc(C(c3nnnn3C3CCCCC3)N3CCN(C4CCCCC4)CC3)cc2c1 (centres undefined) |  |  |  | 8.47 µM (active) | 4.37 µM (active)
22 | O=C(Nc1cccc(Cl)c1)Nc1ccccc1-n1ccnc1 |  |  |  | 0.461 µM (active) | > 60 µM (not active)
23 | Cc1ccc2c(c1)C1CN(C)CCC1N2C(=O)c1cccc(S(=O)(=O)N2CC(C)CC(C)C2)c1 (centres undefined) |  |  |  | 0.216 µM (active) | > 30 µM (not active)
24 | CC(C)c1ccc2c(c1)c(SC(C)(C)C)c(CC(C)(C)C(=O)O)n2Cc1ccc(Cl)cc1 | 1.07 µM (active) | 1.24 µM (active) |  |  | 
